As usually defined, the IC50 is the midpoint of a concentration-inhibition curve.

For the assay, the system named is B16F10 (malignant melanoma cells). As to the kind of experiment: Effect of inhibiting melanin formation in melanocytes (Dooley method). It counts as cell-based. The conditions noted are these: Mus musculus, B16-F10, 72 h; mice-derived B16F10 cells; treated continuously for 3 days; melanin dissolved in 1 N NaOH, absorbance at 405 nm; read-out: Inhibition of melanin formation IC50. How it is done: Each of the amide derivative compounds according to Examples was determined in terms of the effect of inhibiting melanin formation in melanocytes by using the Dooley method. As a cell line, a mice-derived B16F10 (malignant melanoma cells) available from Korean Cell Line Bank was used. In addition, DMEM (Cat No. 11195), FBS (Cat No. 16000-044) and antibiotic-antifungal agent (Cat No. 15240-062) required for culturing cells were purchased from Invitrogen (GIBCO). The cell line was cultured at 37° C. under 5% CO2. The cultured B16F10 cells were stripped off with 0.05% trypsin-EDTA, the same number of cells (1×10^4 cells/well) was inoculated into a 48-well plate, and then the medium was exchanged with a medium containing 10 ppm of each Example continuously for 3 days from the next day. As a positive control, kojic acid and 5-adamantan-1-yl-N-(2,4-dihydroxybenzyl)-2,4-dimethoxybenzamide were used. After the fifth day, the cells were treated with 1 N NaOH to carry out reaction at 60° C. for 2 hours so that melanin contained in the cells might be dissolved, and then the amount of melanin was measured by determining the absorbance at 405 nm. Then, the concentration (IC50) of each Example required for reducing melanin formation by half in melanocytes was calculated.
Turning to `COc1cc(OC)c(C23CC4CC(CC(C4)C2)C3)cc1C(=O)NCc1ccc(O)cc1O` [5-adamantan-1-yl-N-(2,4-dihydroxybenzyl)-2,4-dimethoxybenzamide, reference compound], the IC50 stood at 1.1 µM. Then `O=C(NCc1ccc(O)cc1)C12CC3CC(CC(C3)C1)C2` [Example 5, Adamantane-1-Carboxylic Acid 4-Hydroxybenzylamide], with 11.1 µM. On to `O=c1cc(CO)occ1O` [Kojic acid, reference compound], for which the IC50 was determined as 500 µM.

In the case of `O=C(NCc1cccc(O)c1)C12CC3CC(CC(C3)C1)C2` [Example 6, Adamantane-1-Carboxylic Acid 3-Hydroxybenzylamide], the IC50 is 0.48 µM.

For `O=C(NCc1cc(O)cc(O)c1)C12CC3CC(CC(C3)C1)C2` [Example 3, Adamantane-1-Carboxylic Acid 3,5-Dihydroxybenzylamide], the IC50 was 20.6 µM. As to `O=C(NCc1cc(O)ccc1O)C12CC3CC(CC(C3)C1)C2` [Example 4, Adamantane-1-Carboxylic Acid 2,5-Dihydroxybenzylamide], the IC50 came out at 1.43 µM. Then `O=C(NCc1ccc(O)cc1O)C12CC3CC(CC(C3)C1)C2` [Example 1, Adamantane-1-Carboxylic Acid 2,4-Dihydroxybenzylamide], with 15.1 µM. Then `O=C(NCc1ccccc1O)C12CC3CC(CC(C3)C1)C2` [Example 7, Adamantane-1-Carboxylic Acid 2-Hydroxybenzylamide], with 2.36 µM; and `O=C(NCc1ccc(O)c(O)c1)C12CC3CC(CC(C3)C1)C2` [Example 2, Adamantane-1-Carboxylic Acid 3,4-Dihydroxybenzylamide], with 0.02 µM.

For the origin of these results see US12017974B2, “Adamantanecarboxylic acid benzyl amide derivative compound and skin whitening composition comprising same” (AMOREPACIFIC CORPORATION, priority 2019, dated 2024).
